Assays:
Type in all cases: cell-based
[1] = tested on: methicillin-resistant Staphylococcus aureus (MRSA) isolate CT184; assay: Disc diffusion assay, MRSA isolate CT184
Source text: (§1) Monolaurin samples (MC, MW and MX) synthesized using the present invention were subjected to bio-assay evaluation. Disc diffusion assay was adopted as preliminary evaluation of the compounds as anti methicillin-resistant Staphylococcus aureus (MRSA) agent. Four types of antibiotics were used as comparison: Vancomycin (Va), Rifampicin (RD), Chloamphenicol (C) and Gentamicin (CN).

[2] = tested on: methicillin-resistant Staphylococcus aureus (MRSA) isolate D51; assay: Disc diffusion assay, MRSA isolate D51
Source text: as §1

[3] = tested on: methicillin-resistant Staphylococcus aureus (MRSA) isolate HIS87; assay: Disc diffusion assay, MRSA isolate HIS87
Source text: as §1

[4] = tested on: methicillin-resistant Staphylococcus aureus (MRSA) isolate SA; assay: Disc diffusion assay, MRSA isolate SA
Source text: as §1

[5] = tested on: methicillin-resistant Staphylococcus aureus (MRSA) isolate SP521; assay: Disc diffusion assay, MRSA isolate SP521
Source text: as §1

[6] = tested on: methicillin-resistant Staphylococcus aureus (MRSA) isolate ST122; assay: Disc diffusion assay, MRSA isolate ST122
Source text: as §1

[7] = tested on: methicillin-resistant Staphylococcus aureus (MRSA) isolate N34; assay: Disc diffusion assay, MRSA isolate N34
Source text: as §1

[8] = tested on: methicillin-resistant Staphylococcus aureus (MRSA) isolate U949; assay: Disc diffusion assay, MRSA isolate U949
Source text: as §1

[9] = C (Chloamphenicol) as comparison

SMILES	Diameter of Inhibitory Zone [1, 9]	Diameter of Inhibitory Zone ([1]; CN (Gentamicin) as comparison)	Diameter of Inhibitory Zone ([1]; Rd (Rifampicin) as comparison)	Diameter of Inhibitory Zone ([1]; Va (Vancomycin) as comparison)	Diameter of Inhibitory Zone [2, 9]	Diameter of Inhibitory Zone ([2]; CN (Gentamicin) as comparison)	Diameter of Inhibitory Zone ([2]; Rd (Rifampicin) as comparison)	Diameter of Inhibitory Zone ([2]; Va (Vancomycin) as comparison)	Diameter of Inhibitory Zone [3, 9]	Diameter of Inhibitory Zone ([3]; CN (Gentamicin) as comparison)	Diameter of Inhibitory Zone ([3]; Rd (Rifampicin) as comparison)	Diameter of Inhibitory Zone ([3]; Va (Vancomycin) as comparison)	Diameter of Inhibitory Zone [4, 9]	Diameter of Inhibitory Zone ([4]; CN (Gentamicin) as comparison)	Diameter of Inhibitory Zone ([4]; Rd (Rifampicin) as comparison)	Diameter of Inhibitory Zone ([4]; Va (Vancomycin) as comparison)	Diameter of Inhibitory Zone [5, 9]	Diameter of Inhibitory Zone ([5]; CN (Gentamicin) as comparison)	Diameter of Inhibitory Zone ([5]; Rd (Rifampicin) as comparison)	Diameter of Inhibitory Zone ([5]; Va (Vancomycin) as comparison)	also measured
CCCCCCCCCCCC(=O)OCC(O)CO (stereo not shown) [MW, monolaurin]	0.82 mm	0.35 mm	0.42 mm	2.79 mm	0.88 mm	0.88 mm	0.11 mm	3.00 mm	0.85 mm	0.98 mm	0.12 mm	2.84 mm	3.72 mm	0.74 mm	0.74 mm	5.42 mm	2.14 mm	0.90 mm	0.90 mm	6.12 mm	Diameter of Inhibitory Zone [6, 9]: 4.25 mm; Diameter of Inhibitory Zone ([6]; CN (Gentamicin) as comparison): 0.90 mm; Diameter of Inhibitory Zone ([6]; Rd (Rifampicin) as comparison): 0.90 mm; Diameter of Inhibitory Zone ([6]; Va (Vancomycin) as comparison): 6.38 mm; Diameter of Inhibitory Zone [7, 9]: 0.93 mm; Diameter of Inhibitory Zone ([7]; CN (Gentamicin) as comparison): 0.46 mm; Diameter of Inhibitory Zone ([7]; Rd (Rifampicin) as comparison): 0.46 mm; Diameter of Inhibitory Zone ([7]; Va (Vancomycin) as comparison): 3.12 mm; Diameter of Inhibitory Zone [8, 9]: 1.85 mm; Diameter of Inhibitory Zone ([8]; CN (Gentamicin) as comparison): 0.40 mm; Diameter of Inhibitory Zone ([8]; Rd (Rifampicin) as comparison): 0.40 mm; Diameter of Inhibitory Zone ([8]; Va (Vancomycin) as comparison): 3.04 mm
CCCCCCCCCCCC(=O)OCC(O)CO (stereo not shown) [MC, monolaurin]	0.82 mm	0.35 mm	0.42 mm	2.79 mm	0.87 mm	0.86 mm	0.11 mm	2.95 mm	0.84 mm	0.96 mm	0.11 mm	2.79 mm	2.00 mm	0.40 mm	0.40 mm	2.92 mm	2.68 mm	1.13 mm	1.13 mm	7.64 mm	Diameter of Inhibitory Zone [6, 9]: 5.50 mm; Diameter of Inhibitory Zone ([6]; CN (Gentamicin) as comparison): 1.17 mm; Diameter of Inhibitory Zone ([6]; Rd (Rifampicin) as comparison): 1.17 mm; Diameter of Inhibitory Zone ([6]; Va (Vancomycin) as comparison): 8.26 mm; Diameter of Inhibitory Zone [7, 9]: 0.89 mm; Diameter of Inhibitory Zone ([7]; CN (Gentamicin) as comparison): 0.44 mm; Diameter of Inhibitory Zone ([7]; Rd (Rifampicin) as comparison): 0.44 mm; Diameter of Inhibitory Zone ([7]; Va (Vancomycin) as comparison): 2.99 mm; Diameter of Inhibitory Zone [8, 9]: 4.73 mm; Diameter of Inhibitory Zone ([8]; CN (Gentamicin) as comparison): 1.02 mm; Diameter of Inhibitory Zone ([8]; Rd (Rifampicin) as comparison): 1.02 mm; Diameter of Inhibitory Zone ([8]; Va (Vancomycin) as comparison): 7.77 mm

Source: patent publication US20060128979A1, “High purity palm monoglycerides” (Lembaga Minyak Sawit Malaysia, priority 2004, published 2006)
